According to patent US7638509B2, “Diene compounds and formulations” (priority 2003, dated 2009):

Target: T1, mutant AR (Homo sapiens, UniProt P10275, T878A)
T1 construct: LNCaP without transfection; endogenous in cells; host or cells: LNCaP
T1 sequence (P10275 1-920 T878A): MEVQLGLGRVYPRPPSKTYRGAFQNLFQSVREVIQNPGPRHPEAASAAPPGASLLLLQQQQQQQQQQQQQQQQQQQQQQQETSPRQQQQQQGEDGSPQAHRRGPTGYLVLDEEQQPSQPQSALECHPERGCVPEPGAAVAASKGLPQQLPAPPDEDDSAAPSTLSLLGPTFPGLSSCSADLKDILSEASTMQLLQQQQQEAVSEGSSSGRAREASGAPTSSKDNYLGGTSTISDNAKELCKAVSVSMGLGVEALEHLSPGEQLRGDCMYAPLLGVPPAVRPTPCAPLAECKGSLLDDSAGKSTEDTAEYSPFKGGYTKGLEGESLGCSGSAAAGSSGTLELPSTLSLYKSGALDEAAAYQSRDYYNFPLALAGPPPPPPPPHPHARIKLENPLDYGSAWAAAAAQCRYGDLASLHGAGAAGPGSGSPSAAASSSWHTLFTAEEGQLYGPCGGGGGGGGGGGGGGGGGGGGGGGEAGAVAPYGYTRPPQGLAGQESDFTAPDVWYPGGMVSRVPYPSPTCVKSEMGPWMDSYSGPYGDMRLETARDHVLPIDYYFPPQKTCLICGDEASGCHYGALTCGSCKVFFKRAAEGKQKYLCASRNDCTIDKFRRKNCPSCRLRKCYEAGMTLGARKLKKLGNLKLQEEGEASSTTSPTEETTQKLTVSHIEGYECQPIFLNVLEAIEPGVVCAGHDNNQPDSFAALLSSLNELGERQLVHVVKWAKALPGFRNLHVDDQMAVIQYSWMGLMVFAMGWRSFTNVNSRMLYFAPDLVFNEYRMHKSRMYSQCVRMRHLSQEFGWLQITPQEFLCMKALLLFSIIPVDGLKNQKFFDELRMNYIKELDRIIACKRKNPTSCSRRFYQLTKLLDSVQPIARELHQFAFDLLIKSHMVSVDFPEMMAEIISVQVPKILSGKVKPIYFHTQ
Test: AR transcription, MMTV-Luc reporter in LNCaP cells
Format: cell-based
Details: MMTV-Luc
Protocol: Cell Culture, Transfection, and Reporter Gene Assay. The human prostate cancer cell lines, LNCaP, PC-3, and DU145, and non-prostate cancer cell line COS-1 were maintained in RPMI or Dulbecco's modified Eagle's medium (DMEM) (Life Technologies) supplemented with 10% fetal bovine serum (FBS). […] Briefly, cells seeded to reach a density of 50-60% confluence in 12 well tissue culture plates were transfected with 1.5 μg of DNA according to “SuperFect transfection” instructions (Qiagen). After 2-3 h incubation, cells were treated with medium supplemented with charcoal-stripped FBS containing either ethanol or ligands for 24 h. The cells were then harvested and whole cell extracts were used for Luc assay. The Luc activity was determined using a Dual-Luciferase Reporter Assay System (Promega) and luminometer.
The pSG5-AR was co-transfected in COS-1 cells. […] Values were obtained from the mean±SD of at least three determinations. DU145 cells were transfected with the pSG5-AR and MMTV-Luc in the presence or absence of pSG5-ARA70. […] Values were obtained for the mean±SD of at least three determinations.

CC(=O)O[C@H]1C=C[C@@]2(C)C(=CC[C@@H]3[C@@H]2CC[C@@]2(C)[C@H]3CCC23OCCO3)C1 [ADEK, 3β-acetoxy-17,17-ethylenedioxyandrosta-1,5-diene]
DHT-induced mutant AR transcription suppressed to (DHT = 100%) (1 nM DHT, dose-dependent): 17% | agonist / androgenic activity on mutant AR transcription (in words) (HF at 10 μM): lower than that of casodex
